Results as given in patent US20100144008A1, “TREATMENT OF FABRY DISEASE” (ACADEMISCH ZIEKENHUIS BIJ DE UNIVERSITEIT VAN AMSTERDAM, priority 2006, published 2010).
Read-outs that look alike come from different tables or passages of the source.

Assays:
[1] = Partitioning of lyso-CTH in Bligh and Dyer and butanol/water extraction; format: physicochemical
Method: An optimal extraction procedure for lyso-CTH from plasma samples was established. A double extraction was carried out, first a Bligh and Dyer extraction followed by butanol extraction.

alpha-galactosidase A = biological target: T1, alpha-galactosidase A (Homo sapiens, UniProt P06280); test: Inhibition of alpha-galactosidase A by lyso-CTH; format: biochemical
T1 sequence (P06280 32-429): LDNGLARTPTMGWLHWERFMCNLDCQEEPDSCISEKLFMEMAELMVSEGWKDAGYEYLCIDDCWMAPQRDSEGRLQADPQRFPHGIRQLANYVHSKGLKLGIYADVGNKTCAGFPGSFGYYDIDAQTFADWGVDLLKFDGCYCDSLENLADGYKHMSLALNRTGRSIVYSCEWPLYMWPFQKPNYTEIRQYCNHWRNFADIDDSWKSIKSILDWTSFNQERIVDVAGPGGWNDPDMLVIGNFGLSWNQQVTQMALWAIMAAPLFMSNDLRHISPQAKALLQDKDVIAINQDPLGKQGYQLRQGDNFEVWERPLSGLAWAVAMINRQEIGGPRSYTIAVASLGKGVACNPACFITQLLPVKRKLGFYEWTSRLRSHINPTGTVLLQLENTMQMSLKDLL

alpha-galactosidase B = biological target: T2, alpha-galactosidase B (Homo sapiens, UniProt P17050); test: Inhibition of alpha-galactosidase B by lyso-CTH; format: biochemical
T2 sequence (P17050 18-411): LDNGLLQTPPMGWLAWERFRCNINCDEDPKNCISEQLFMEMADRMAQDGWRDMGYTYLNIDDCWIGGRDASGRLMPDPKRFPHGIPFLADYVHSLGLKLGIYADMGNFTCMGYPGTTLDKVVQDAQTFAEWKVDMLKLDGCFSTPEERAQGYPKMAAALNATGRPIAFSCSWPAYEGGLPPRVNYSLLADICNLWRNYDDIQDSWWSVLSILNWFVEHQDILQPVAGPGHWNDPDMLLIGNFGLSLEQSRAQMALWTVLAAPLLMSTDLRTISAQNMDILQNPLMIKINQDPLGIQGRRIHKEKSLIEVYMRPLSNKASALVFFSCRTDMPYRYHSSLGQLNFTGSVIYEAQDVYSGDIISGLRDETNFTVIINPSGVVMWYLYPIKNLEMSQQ

SMC-41 cell line = test: Toxic effect in vitro: 3H thymidine incorporation and proliferation in SMC-41 cell line; format: cell-based; conditions: lyso-CTH 0.065-0.65 μM (as found in plasma of Fabry patients); for proliferation of SMC-41 (smooth muscle cell proliferation): in vitro
Method: The toxic effect of lyso-CTH was determined in vitro in SMC-41 cell line. ^3H thymidine incorporation (per 24 h) was determined as a function of lyso-CTH concentration.

[2] = Plasma circulation of alphaGAL replacement enzyme in mouse model of Fabry disease; format: in vivo; conditions: compared to underivatised agalsidase beta
Method: Via standard methods agalsidase beta (Fabrazyme®, Genzyme) is pegylated.
In a mouse model of Fabry disease at different time-points plasma samples are analysed for the presence of agalsidase beta to give reference values and at the same different time-points plasma samples are analysed for the presence of pegylated agalsidase beta.

lyso-CTH = test: Plasma lyso-CTH concentration in mouse model of Fabry disease after enzyme; format: in vivo; conditions: compared to underivatised agalsidase beta

Compound	Partitioning of lyso-CTH (% of total), lower phase ([1]; Bligh and Dyer extraction)	Partitioning of lyso-CTH (% of total), upper phase ([1]; Bligh and Dyer extraction)	Partitioning of lyso-CTH (% of total), lower phase ([1]; butanol/water extraction)	Partitioning of lyso-CTH (% of total), upper phase ([1]; butanol/water extraction)	Inhibition of alpha-galactosidase A (alpha-galactosidase A)	Inhibition of alpha-galactosidase A (alpha-galactosidase A; listed as Lyso-CTH)	Inhibition of alpha-galactosidase B (alpha-galactosidase B)	Inhibition of alpha-galactosidase B (alpha-galactosidase B; listed as Lyso-CTH)	3H thymidine incorporation (per 24 h) (SMC-41 cell line; SMC-41 cell line)	proliferation of SMC-41 (smooth muscle cell proliferation) (SMC-41 cell line)	proliferation of SMC-41 (smooth muscle cell proliferation) (SMC-41 cell line; listed as Lyso-CTH)	plasma circulation time [2]	concentration of lyso-CTH in the plasma samples (lyso-CTH)
CCCCCCCCCCCCC/C=C/[C@@H](O)[C@@H](N)CO[C@@H]1O[C@H](CO)[C@@H](O[C@@H]2O[C@H](CO)[C@H](O[C@H]3O[C@H](CO)[C@H](O)[C@H](O)[C@H]3O)[C@H](O)[C@H]2O)[C@H](O)[C@H]1O [lyso-CTH, lyso-ceramide trihexosamide]	10 % of total	90 % of total	2 % of total	99 % of total	inhibits	potent inhibitor	inhibits	potent inhibitor	increased isotope incorporation	increased proliferation	promote in vitro smooth muscle cell proliferation		
pegylated agalsidase beta: agalsidase beta (Fabrazyme, Genzyme) pegylated via standard methods												increase in plasma circulation time	significantly lower
